Some results are limits rather than exact numbers.

One data set addresses T1, NMDAR2C (Homo sapiens, UniProt Q14957).
T1 construct: expressed in transfected cells; host or cells: HEK cells (membrane extract)
The data set is described as follows: NMDAR agonist assay, [3H]MK-801 binding, NMDAR2C expressing HEK cell membranes. The conditions noted are these: 50 μM glutamate. Format: biochemical. Here is the method: (§1) Assays were conducted as described by Moskal et al., “GLYX-13: a monoclonal antibody-derived peptide that acts as an N-methyl-D-aspartate receptor modulator,” Neuropharmacology, 49, 1077-87, 2005. These studies were designed to determine if the test compounds act to facilitate NMDAR activation in NMDAR2A, NMDAR2B, NMDAR2C or NMDAR2D expressing HEK cell membranes as measured by increases in [3H]MK-801 binding.
In the assay, 300 μg of NMDAR expressing HEK cell membrane extract protein was preincubated for 15 minutes at 25° C. in the presence of saturating concentrations of glutamate (50 μM) and varying concentrations of test compound (1×10^−15M-1×10^−7M), or 1 mM glycine. Following the addition of 0.3 μCi of [3H]MK-801 (22.5 Ci/mmol), reactions were again incubated for 15 minutes at 25° C. (nonequilibrium conditions). […]
In analyzing the data, the DPM (disintegrations per minute) of [3H]MK-801 remaining on the filter were measured for each concentration of test compound or for 1 mM glycine. […] The baseline value was determined from the best fit curve of the DPM values modeled using the GraphPad program and the log(agonist) vs. response(three parameters) algorithm was then subtracted from all points in the dataset. The % maximal [3H]MK-801 binding was then calculated relative to that of 1 mM glycine: all baseline subtracted DPM values were divided by the average value for 1 mM glycine. […]

Data set [1] has as its target T2, NMDAR2D (Homo sapiens, UniProt O15399).
T2 construct: expressed in transfected cells; host or cells: HEK cells (membrane extract)
Description: NMDAR agonist assay, [3H]MK-801 binding, NMDAR2D expressing HEK cell membranes. Format: biochemical. The conditions noted are these: 50 μM glutamate. The procedure: as §1
(§2) In the assay, 300 μg of NMDAR expressing HEK cell membrane extract protein was preincubated for 15 minutes at 25° C. in the presence of saturating concentrations of glutamate (50 μM) and varying concentrations of test compound (1×10^−15M-1×10^−7M), or 1 mM glycine. Following the addition of 0.3 μCi of [3H]MK-801 (22.5 Ci/mmol), reactions were again incubated for 15 minutes at 25° C. (nonequilibrium conditions). Bound and free [3H]MK-801 were separated via rapid filtration using a Brandel apparatus.
(§3) In analyzing the data, the DPM (disintegrations per minute) of [3H]MK-801 remaining on the filter were measured for each concentration of test compound or for 1 mM glycine. The DPM values for each concentration of a ligand (N=2) were averaged. The baseline value was determined from the best fit curve of the DPM values modeled using the GraphPad program and the log(agonist) vs. response(three parameters) algorithm was then subtracted from all points in the dataset. The % maximal [3H]MK-801 binding was then calculated relative to that of 1 mM glycine: all baseline subtracted DPM values were divided by the average value for 1 mM glycine. The EC50 and % maximal activity were then obtained from the best fit curve of the % maximal [3H]MK-801 binding data modelled using the GraphPad program and the log(agonist) vs. response(three parameters) algorithm.
(§4) The tables below summarize the results for the wild type NMDAR agonists NMDAR2A, NMDAR2B, NMDAR2C, and NMDAR2D, and whether the compound is not an agonist (−), is an agonist (+), or is a strong agonist (++), where column A is based on the % maximal [3H]MK-801 binding relative to 1 mM glycine (−=0; <100%=+; and >100%=++); and column B is based on log EC50 values (0=−; >1×10^−9 M (e.g., −8)=+; and <1×10^−9 M (e.g., −10)++).

In data set [2] the target is T3, NMDAR2D (Homo sapiens, UniProt O15399+Q05586).
T3 construct: expressed in transfected cells; host or cells: HEK cells (membrane extract)
T3 sequence (O15399 28-1336, species assumed, other chains not shown): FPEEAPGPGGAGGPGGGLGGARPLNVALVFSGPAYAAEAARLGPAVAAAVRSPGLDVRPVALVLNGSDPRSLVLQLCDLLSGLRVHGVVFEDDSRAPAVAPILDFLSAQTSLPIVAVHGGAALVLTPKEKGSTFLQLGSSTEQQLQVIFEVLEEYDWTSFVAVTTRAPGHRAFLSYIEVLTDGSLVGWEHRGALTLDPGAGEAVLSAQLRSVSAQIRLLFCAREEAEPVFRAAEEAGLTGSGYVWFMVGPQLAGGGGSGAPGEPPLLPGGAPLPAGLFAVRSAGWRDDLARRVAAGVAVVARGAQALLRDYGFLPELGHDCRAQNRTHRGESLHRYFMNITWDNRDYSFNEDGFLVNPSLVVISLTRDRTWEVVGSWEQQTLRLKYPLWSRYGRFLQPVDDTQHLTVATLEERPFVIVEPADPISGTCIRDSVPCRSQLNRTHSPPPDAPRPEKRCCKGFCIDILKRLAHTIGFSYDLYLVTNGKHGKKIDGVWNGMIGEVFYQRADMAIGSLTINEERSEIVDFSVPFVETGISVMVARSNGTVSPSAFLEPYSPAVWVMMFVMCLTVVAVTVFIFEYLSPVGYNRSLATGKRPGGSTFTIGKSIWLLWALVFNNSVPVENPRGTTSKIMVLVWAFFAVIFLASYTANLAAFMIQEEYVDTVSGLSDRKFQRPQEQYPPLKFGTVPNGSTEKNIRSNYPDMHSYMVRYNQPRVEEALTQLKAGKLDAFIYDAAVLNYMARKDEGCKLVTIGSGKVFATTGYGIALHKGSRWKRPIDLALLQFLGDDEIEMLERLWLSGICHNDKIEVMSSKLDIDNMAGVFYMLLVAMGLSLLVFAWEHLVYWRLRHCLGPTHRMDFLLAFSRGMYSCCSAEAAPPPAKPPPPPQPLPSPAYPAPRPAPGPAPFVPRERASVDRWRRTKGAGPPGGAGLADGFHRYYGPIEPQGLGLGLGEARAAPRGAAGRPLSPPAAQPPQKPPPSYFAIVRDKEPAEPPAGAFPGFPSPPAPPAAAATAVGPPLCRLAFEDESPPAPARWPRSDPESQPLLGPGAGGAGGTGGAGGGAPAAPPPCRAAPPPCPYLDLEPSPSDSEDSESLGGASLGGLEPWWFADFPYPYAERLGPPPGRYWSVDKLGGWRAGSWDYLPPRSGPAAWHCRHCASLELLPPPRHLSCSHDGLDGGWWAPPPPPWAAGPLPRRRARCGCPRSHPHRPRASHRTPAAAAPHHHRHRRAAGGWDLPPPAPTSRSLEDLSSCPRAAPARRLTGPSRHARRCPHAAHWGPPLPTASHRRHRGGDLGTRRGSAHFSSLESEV
The data set is described as above. The conditions noted are these: 50 μM glutamate, read-out: NMDAR2D B: log EC50 (converted). Format: biochemical. The procedure: as §1, §2, §3, §4

Data set [3] in a line: Oral pharmacokinetics in rats (plasma, brain, CSF). Format: in vivo, Sprague Dawley rats. The conditions noted are these: rat, oral gavage, 10 mg/kg. Here is the method:
In another experiment, Sprague Dawley rats were dosed per os (oral gavage) using a normal saline formulation containing 10 mg/kg of the compounds identified in the table below. Plasma, brain, and CSF samples were analyzed at various time points over a 24 hour period. The table below summarizes the results of the oral pharmacokinetics, where the first three values (Tmax, Cmax and AUClast) are plasma values.

The next data set has as its target T4, NMDAR2A (Homo sapiens, UniProt Q12879).
T4 construct: expressed in transfected cells; host or cells: HEK cells (membrane extract)
The data set is described as follows: NMDAR agonist assay, [3H]MK-801 binding, NMDAR2A expressing HEK cell membranes. Format: biochemical. The conditions noted are these: 50 μM glutamate. The procedure:
as §1, §2, §3, §4

T1 sequence (Q14957 20-1233, species assumed, other chains not shown): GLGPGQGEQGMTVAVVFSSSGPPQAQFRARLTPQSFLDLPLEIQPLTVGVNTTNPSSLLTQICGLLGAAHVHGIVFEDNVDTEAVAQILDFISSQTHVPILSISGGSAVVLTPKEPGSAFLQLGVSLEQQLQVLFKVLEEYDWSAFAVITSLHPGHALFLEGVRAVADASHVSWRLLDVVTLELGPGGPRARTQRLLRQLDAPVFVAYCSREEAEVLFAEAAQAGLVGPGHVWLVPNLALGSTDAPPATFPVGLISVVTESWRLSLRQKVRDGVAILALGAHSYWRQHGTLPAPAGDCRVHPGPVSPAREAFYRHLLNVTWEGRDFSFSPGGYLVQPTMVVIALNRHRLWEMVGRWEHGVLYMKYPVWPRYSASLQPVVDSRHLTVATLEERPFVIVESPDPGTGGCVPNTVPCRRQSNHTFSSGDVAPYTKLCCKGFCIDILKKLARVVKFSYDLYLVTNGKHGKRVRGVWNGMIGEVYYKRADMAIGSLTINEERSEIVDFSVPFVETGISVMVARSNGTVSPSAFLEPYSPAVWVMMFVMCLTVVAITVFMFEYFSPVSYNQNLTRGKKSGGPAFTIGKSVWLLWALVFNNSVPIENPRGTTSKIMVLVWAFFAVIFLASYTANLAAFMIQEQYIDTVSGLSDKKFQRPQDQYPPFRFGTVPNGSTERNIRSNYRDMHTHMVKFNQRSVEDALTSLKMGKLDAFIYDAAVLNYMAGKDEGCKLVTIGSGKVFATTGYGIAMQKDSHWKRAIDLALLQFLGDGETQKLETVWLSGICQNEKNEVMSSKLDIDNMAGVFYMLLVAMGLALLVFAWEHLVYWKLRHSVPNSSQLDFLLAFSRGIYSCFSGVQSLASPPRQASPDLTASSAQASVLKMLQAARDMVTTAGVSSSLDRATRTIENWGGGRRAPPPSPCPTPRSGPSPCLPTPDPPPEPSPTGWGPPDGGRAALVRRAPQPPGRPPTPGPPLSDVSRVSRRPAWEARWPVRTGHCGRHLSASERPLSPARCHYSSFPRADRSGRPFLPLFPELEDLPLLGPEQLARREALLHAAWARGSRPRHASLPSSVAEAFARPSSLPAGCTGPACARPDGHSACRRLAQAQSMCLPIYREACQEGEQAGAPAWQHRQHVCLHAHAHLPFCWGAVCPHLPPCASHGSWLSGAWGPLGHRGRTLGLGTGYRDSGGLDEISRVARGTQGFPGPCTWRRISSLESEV
T4 sequence (Q12879 23-1464, species assumed, other chains not shown): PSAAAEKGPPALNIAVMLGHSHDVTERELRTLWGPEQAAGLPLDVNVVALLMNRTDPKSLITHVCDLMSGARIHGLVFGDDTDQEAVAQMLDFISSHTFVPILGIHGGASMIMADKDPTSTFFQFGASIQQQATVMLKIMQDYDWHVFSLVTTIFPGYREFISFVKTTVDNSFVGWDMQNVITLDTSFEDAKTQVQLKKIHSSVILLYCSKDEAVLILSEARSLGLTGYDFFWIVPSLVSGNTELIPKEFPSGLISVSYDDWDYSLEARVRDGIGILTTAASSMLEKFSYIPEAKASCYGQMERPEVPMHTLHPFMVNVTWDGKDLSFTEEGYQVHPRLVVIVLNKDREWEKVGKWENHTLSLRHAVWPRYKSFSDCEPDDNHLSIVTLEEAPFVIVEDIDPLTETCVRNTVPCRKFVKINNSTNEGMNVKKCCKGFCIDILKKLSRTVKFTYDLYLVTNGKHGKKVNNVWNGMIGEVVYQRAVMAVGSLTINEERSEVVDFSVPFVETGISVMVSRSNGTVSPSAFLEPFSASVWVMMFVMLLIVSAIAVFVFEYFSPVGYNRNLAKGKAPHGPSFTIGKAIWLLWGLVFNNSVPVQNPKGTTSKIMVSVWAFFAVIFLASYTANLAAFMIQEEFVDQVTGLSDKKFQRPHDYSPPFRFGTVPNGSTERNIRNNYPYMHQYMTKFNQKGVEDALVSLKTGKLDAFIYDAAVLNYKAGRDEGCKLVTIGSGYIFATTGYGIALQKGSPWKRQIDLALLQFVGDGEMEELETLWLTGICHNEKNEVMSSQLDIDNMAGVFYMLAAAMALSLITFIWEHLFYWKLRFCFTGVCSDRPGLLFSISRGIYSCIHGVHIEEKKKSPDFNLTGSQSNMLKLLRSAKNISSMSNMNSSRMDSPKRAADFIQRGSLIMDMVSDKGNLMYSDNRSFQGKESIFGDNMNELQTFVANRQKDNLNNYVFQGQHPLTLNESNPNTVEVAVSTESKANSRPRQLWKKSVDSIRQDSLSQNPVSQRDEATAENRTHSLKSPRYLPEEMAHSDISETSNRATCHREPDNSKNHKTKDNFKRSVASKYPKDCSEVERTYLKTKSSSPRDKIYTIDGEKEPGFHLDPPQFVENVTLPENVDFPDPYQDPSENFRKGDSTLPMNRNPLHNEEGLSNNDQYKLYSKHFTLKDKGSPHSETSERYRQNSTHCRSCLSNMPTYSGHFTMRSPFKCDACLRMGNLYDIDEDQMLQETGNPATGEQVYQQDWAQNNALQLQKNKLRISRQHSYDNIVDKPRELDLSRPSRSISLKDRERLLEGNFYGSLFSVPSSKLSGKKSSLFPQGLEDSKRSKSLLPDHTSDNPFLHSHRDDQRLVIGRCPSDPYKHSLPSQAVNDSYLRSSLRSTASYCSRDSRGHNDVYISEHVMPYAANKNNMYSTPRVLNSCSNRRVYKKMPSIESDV
T2 sequence (O15399 28-1336, species assumed, other chains not shown): as the sequence (O15399 28-1336, species assumed, other chains not shown) above

What is called EC50 is the concentration needed to bring the measured effect to its halfway point. By bioavailability is commonly meant dose-corrected exposure relative to a reference, in per cent. As usually defined, the AUC(0-t) is the area under the concentration-time curve up to a stated or last time point. For orientation: Cmax means the highest concentration seen after dosing. Usually Tmax stands for the time at which the peak concentration occurs. `CC(C)C(=O)N1CCC2(CCCNC2=O)CC1` [Compound AD, 9-isobutyryl-2,9-diazaspiro[5.5]undecan-1-one]: the “NMDAR2C A: % maximal [3H]MK-801 binding relative to 1 mM glycine” value at NMDAR2C was “+ (<100%=+)”. The concentration giving a half-maximal response (EC50) at NMDAR2C (read-out: NMDAR2C B: log EC50 (converted)) is below 1 nM. In addition, the “NMDAR2D A: % maximal [3H]MK-801 binding relative to 1 mM glycine” value on NMDAR2D [1] is “+ (<100%=+)”. In addition, on NMDAR2D [2], the half-maximal effective concentration (EC50) is below 1 nM. In addition, in data set [3] (Sprague Dawley, plasma), the bioavailability came to 70%, the AUC(0-t) worked out at 18400 ng·h/mL, the peak concentration (Cmax) came out at 8540 ng/mL and the Tmax stood at 19.8 min. For the same compound, in data set [3] (CSF), the “CSF Cmax” value was found to be 4697 ng/mL. In addition, the “Brain Cmax” value in data set [3] (brain) is 4833 ng/mL. The “NMDAR2A A: % maximal [3H]MK-801 binding relative to 1 mM glycine” value on NMDAR2A is reported as “+ (<100%=+)”. Also, the EC50 at NMDAR2A (read-out: NMDAR2A B: log EC50 (converted)) was below 1 nM.
